≈ marks a conversion by molar mass, not a printed value. Read-outs that look alike come from different tables or passages of the source.
Assays:
[1] = system: E. coli; test: Serial twofold agar dilution (Mueller-Hinton agar), E. coli; format: cell-based; conditions: Escherichia coli
Method: (§1) The Minimum Inhibitory Concentrations (MIC) for sodium 6-[D-(-)-α-phenyl-α-(7-hydroxy-4-oxo-4H-pyrimido[1,2-b]pyridazin-3-ylcarboxamido)acetamido]penicillanate (BB-P598) and sulbenicillin were determined by the serial twofold agar dilution method using Steers' apparatus on Mueller-Hinton agar plates against 31 test organisms for the primary screening (Table 1) and also against 61 strains of Pseudomonas aeruginosa for the secondary evaluation (Table 2).
(§2) Minimum Inhibitory Concentrations (MIC) for sodium 6-[D-(-)-α-phenyl-α-(7-hydroxy-4-oxo-4H-pyrimido[1,2-b]pyridazin-3-ylcarboxamido)acetamido]pencillanate (BB-P598), sodium 6-[D-(-)-α-(4-hydroxyphenyl)-α-(7-hydroxy-4-oxo-4H-pyrimido[1,2-b]pyridazin-3-ylcarboxamido)acetamido]-penicillanate (BB-P642) and carbenicillin were determined by the serial twofold agar dilution method using Steers' apparatus on Mueller-Hinton agar plates against 31 tests organisms (Table 8) and also against 61 strains of Pseudomonas aeruginosa (Table 9). In terms of mean % relative activity compared with carbenicillin, compounds BB-B598 and BB-P642 were 856% and 1319% as active as carbenicillin against the 61 Pseudomonas strains of Table 9.

[2] = system: Pseudomonas aeruginosa; test: Serial twofold agar dilution (Mueller-Hinton agar), P. aeruginosa; format: cell-based; conditions: Pseudomonas aeruginosa
Method: as §1, §2

[3] = system: S. marcescens; test: Serial twofold agar dilution (Mueller-Hinton agar), S. marcescens; format: cell-based; conditions: Serratia marcescens, S. marcescens A20019, Table 8
Method: as §1, §2

[4] = system: E. cloacae; test: Serial twofold agar dilution (Mueller-Hinton agar), E. cloacae; format: cell-based; conditions: Enterobacter cloacae
Method: as §1, §2

[5] = system: P. morganii; test: Serial twofold agar dilution (Mueller-Hinton agar), P. morganii; format: cell-based; conditions: Morganella morganii, P. morganii A9553, Table 8, read-out: MIC
Method: as §1, §2

[6] = system: P. mirabilis; test: Serial twofold agar dilution (Mueller-Hinton agar), P. mirabilis; format: cell-based; conditions: Proteus mirabilis, P. mirabilis A9900; Mueller-Hinton agar; Table 8; read-out: MIC
Method: as §1, §2

[7] = system: K. pneumoniae; test: Serial twofold agar dilution (Mueller-Hinton agar), K. pneumoniae; format: cell-based; conditions: Klebsiella pneumoniae, K. pneumoniae A9977, Table 8, read-out: MIC
Method: as §1, §2

[8] = system: P. vulgaris; test: Serial twofold agar dilution (Mueller-Hinton agar), P. vulgaris; format: cell-based; conditions: Proteus vulgaris, P. vulgaris A9539, Table 8, read-out: MIC
Method: as §1, §2

[9] = Mouse blood levels after subcutaneous administration; conditions: in vivo, sc, 20 mg/kg
Method: Mouse blood levels of BB-[…] and BB-[…] were determined by subcutaneous administration of 20 mg/kg of the penicillin to groups of three mice. Blood samples collected from orbital sinuses were assayed by the paper disk agar-diffusion method on Sarcina lutea PC1 1001 plates.

[10] = system: S. aureus; test: Serial twofold agar dilution (Mueller-Hinton agar), S. aureus; format: cell-based; conditions: Staphylococcus aureus
Method: as §1, §2

[11] = system: Klebsiella sp.; test: Serial twofold agar dilution (Mueller-Hinton agar), Klebsiella sp.; format: cell-based; conditions: Klebsiella sp. A20452, Mueller-Hinton agar, Table 8, read-out: MIC
Method: as §1, §2

[12] = system: Pseudomonas sp.; test: Serial twofold agar dilution (Mueller-Hinton agar), Pseudomonas sp.; format: cell-based; conditions: Pseudomonas sp. A20358, Table 8, read-out: MIC
Method: as §1, §2

[13] = system: S. enteritidis; test: Serial twofold agar dilution (Mueller-Hinton agar), S. enteritidis; format: cell-based; conditions: Salmonella enterica, S. enteritidis A9531, Table 8, read-out: MIC
Method: as §1, §2

Structure (SMILES): CC1(C)S[C@@H]2[C@H](NC(=O)C(C(=O)O)c3ccccc3)C(=O)N2[C@H]1C(=O)O (stereo partly drawn) [Carbenicillin, reference compound]
- MIC ([1]; E. coli A9635, Table 8, read-out: MIC): 6.3 µg/mL (≈ 16.6 µM)
- MIC ([1]; E. coli A9844, Table 8, read-out: MIC): 0.4 µg/mL (≈ 1.06 µM)
- MIC ([1]; E. coli A20366, Table 8, read-out: MIC): > 100 µg/mL
- MIC ([1]; E. coli A20520, Table 8, read-out: MIC): 1.6 µg/mL (≈ 4.23 µM)
- MIC ([1]; E. coli A20664, Table 8, read-out: MIC): 0.8 µg/mL (≈ 2.11 µM)
- MIC ([1]; E. coli A20732, Table 8, read-out: MIC): > 100 µg/mL
- MIC ([1]; E. coli A20898, Table 8, read-out: MIC): > 100 µg/mL
- MIC ([1]; E. coli Juhl A15119, Table 8, read-out: MIC): 3.1 µg/mL (≈ 8.19 µM)
- MIC ([1]; E. coli NIHJ, Table 8, read-out: MIC): 0.4 µg/mL (≈ 1.06 µM)
- MIC ([2]; 61 strains of P. aeruginosa, Table 9, read-out: Geometric mean of MIC): 30 µg/mL (≈ 79.2 µM)
- MIC ([2]; ATCC19660, Pa-14 ATCC 19660 A20325, Mueller-Hinton agar, Table 9, read-out: MIC): 50 µg/mL (≈ 132 µM)
- MIC ([2]; GN315, Pa-27 GN315 A21294, Mueller-Hinton agar, Table 9, read-out: MIC): 25 µg/mL (≈ 66.1 µM)
- MIC ([2]; GN4925, Pa-45 GN 4925, Mueller-Hinton agar, Table 9, read-out: MIC): 100 µg/mL (≈ 264 µM)
- MIC ([2]; P. aeruginosa A9843, Mueller-Hinton agar, Table 8, read-out: MIC): 25 µg/mL (≈ 66.1 µM)
- MIC ([2]; P. aeruginosa A9930, Mueller-Hinton agar, Table 8, read-out: MIC): 25 µg/mL (≈ 66.1 µM)
- MIC ([2]; P. aeruginosa A15150, Mueller-Hinton agar, Table 8, read-out: MIC): 25 µg/mL (≈ 66.1 µM)
- MIC ([2]; P. aeruginosa A20717, Mueller-Hinton agar, Table 8, read-out: MIC): 100 µg/mL (≈ 264 µM)
- MIC ([2]; Pa-1 D15, Mueller-Hinton agar, Table 9, read-out: MIC): 12.5 µg/mL (≈ 33 µM)
- MIC ([2]; Pa-3 1449 V.A A9930, Mueller-Hinton agar, Table 9, read-out: MIC): 12.5 µg/mL (≈ 33 µM)
- MIC ([2]; Pa-5 M4865, K.C A15150, Mueller-Hinton agar, Table 9, read-out: MIC): 6.3 µg/mL (≈ 16.6 µM)
- MIC ([2]; Pa-6 No. 5 Levitan A15194, Mueller-Hinton agar, Table 9, read-out: MIC): > 100 µg/mL
- MIC ([2]; Pa-7 A9843, Mueller-Hinton agar, Table 9, read-out: MIC): 50 µg/mL (≈ 132 µM)
- MIC ([2]; Pa-10 A21479, Mueller-Hinton agar, Table 9, read-out: MIC): > 100 µg/mL
- MIC ([2]; Pa-12 A20653, Mueller-Hinton agar, Table 9, read-out: MIC): 50 µg/mL (≈ 132 µM)
- MIC ([2]; Pa-15 A20717, Mueller-Hinton agar, Table 9, read-out: MIC): > 100 µg/mL
- MIC ([2]; Pa-16 #130 A20718, Mueller-Hinton agar, Table 9, read-out: MIC): 6.3 µg/mL (≈ 16.6 µM)
- MIC ([2]; Pa-17 H6, D114, Mueller-Hinton agar, Table 9, read-out: MIC): 12.5 µg/mL (≈ 33 µM)
- MIC ([2]; Pa-18 H8, D121, Mueller-Hinton agar, Table 9, read-out: MIC): 3.1 µg/mL (≈ 8.19 µM)
- MIC ([2]; Pa-19 A20229, Mueller-Hinton agar, Table 9, read-out: MIC): 12.5 µg/mL (≈ 33 µM)
- MIC ([2]; Pa-24 A20896, Mueller-Hinton agar, Table 9, read-out: MIC): > 100 µg/mL
- MIC ([2]; Pa-25 A20897, Mueller-Hinton agar, Table 9, read-out: MIC): 3.1 µg/mL (≈ 8.19 µM)
- MIC ([2]; Pa-26 PS32, Mueller-Hinton agar, Table 9, read-out: MIC): 0.4 µg/mL (≈ 1.06 µM)
- MIC ([2]; Pa-28 C.P.H. 10527/72, Mueller-Hinton agar, Table 9, read-out: MIC): 50 µg/mL (≈ 132 µM)
- MIC ([2]; Pa-31 A20594, Mueller-Hinton agar, Table 9, read-out: MIC): 12.5 µg/mL (≈ 33 µM)
- MIC ([2]; Pa-32 A20595, Mueller-Hinton agar, Table 9, read-out: MIC): 50 µg/mL (≈ 132 µM)
- MIC ([2]; Pa-33 A20598, Mueller-Hinton agar, Table 9, read-out: MIC): 12.5 µg/mL (≈ 33 µM)
- MIC ([2]; Pa-35, Mueller-Hinton agar, Table 9, read-out: MIC): 100 µg/mL (≈ 264 µM)
- MIC ([2]; Pa-36, Mueller-Hinton agar, Table 9, read-out: MIC): 1.6 µg/mL (≈ 4.23 µM)
- MIC ([2]; Pa-37 A20130, Mueller-Hinton agar, Table 9, read-out: MIC): 50 µg/mL (≈ 132 µM)
- MIC ([2]; Pa-38 A20349, Mueller-Hinton agar, Table 9, read-out: MIC): 100 µg/mL (≈ 264 µM)
- MIC ([2]; Pa-39 A20641, Mueller-Hinton agar, Table 9, read-out: MIC): 12.5 µg/mL (≈ 33 µM)
- MIC ([2]; Pa-42 A21229, Mueller-Hinton agar, Table 9, read-out: MIC): > 100 µg/mL
- MIC ([2]; Pa-43 A21233, Mueller-Hinton agar, Table 9, read-out: MIC): 50 µg/mL (≈ 132 µM)
- MIC ([2]; Pa-44 A21274, Mueller-Hinton agar, Table 9, read-out: MIC): 50 µg/mL (≈ 132 µM)
- MIC ([2]; Pa-52 A9926, Mueller-Hinton agar, Table 9, read-out: MIC): 50 µg/mL (≈ 132 µM)
- MIC ([2]; Pa-54 A20128, Mueller-Hinton agar, Table 9, read-out: MIC): 50 µg/mL (≈ 132 µM)
- MIC ([2]; Pa-55 A20227, Mueller-Hinton agar, Table 9, read-out: MIC): 50 µg/mL (≈ 132 µM)
- MIC ([2]; Pa-57 A20546, Mueller-Hinton agar, Table 9, read-out: MIC): 50 µg/mL (≈ 132 µM)
- MIC ([2]; Pa-58 A20557, Mueller-Hinton agar, Table 9, read-out: MIC): 50 µg/mL (≈ 132 µM)
- MIC ([2]; Pa-61 A20726, Mueller-Hinton agar, Table 9, read-out: MIC): 50 µg/mL (≈ 132 µM)
- MIC ([2]; Pa-62 A21213, Mueller-Hinton agar, Table 9, read-out: MIC): > 100 µg/mL
- MIC ([2]; Pa-66 A21434, Mueller-Hinton agar, Table 9, read-out: MIC): 50 µg/mL (≈ 132 µM)
- MIC ([2]; Pa-67 A21509, Mueller-Hinton agar, Table 9, read-out: MIC): 50 µg/mL (≈ 132 µM)
- MIC ([2]; Pa-68 A21510, Mueller-Hinton agar, Table 9, read-out: MIC): 50 µg/mL (≈ 132 µM)
- MIC ([2]; Pa-69 A21587, Mueller-Hinton agar, Table 9, read-out: MIC): 100 µg/mL (≈ 264 µM)
- MIC [3]: 3.1 µg/mL (≈ 8.19 µM)
- MIC ([4]; E. cloacae A9656, Table 8): 3.1 µg/mL (≈ 8.19 µM)
- MIC ([4]; E. cloacae A9657, Table 8): 25 µg/mL (≈ 66.1 µM)
- MIC ([4]; E. cloacae A9659, Table 8): 3.1 µg/mL (≈ 8.19 µM)
- MIC [5]: > 100 µg/mL
- MIC [6]: 0.4 µg/mL (≈ 1.06 µM)
- MIC [7]: 3.1 µg/mL (≈ 8.19 µM)
- MIC [8]: 1.6 µg/mL (≈ 4.23 µM)
- concentration at 0.25 h [9]: 11500 ng/mL
- concentration at 0.5 h [9]: 9000 ng/mL
- concentration at 1 h [9]: 5800 ng/mL
- MIC ([10]; S. aureus A15097, Table 8, read-out: MIC): 50 µg/mL (≈ 132 µM)
- MIC ([10]; S. aureus A20239, Table 8, read-out: MIC): 6.3 µg/mL (≈ 16.6 µM)
- MIC ([10]; S. aureus A20240, Table 8, read-out: MIC): 3.1 µg/mL (≈ 8.19 µM)
- MIC ([10]; S. aureus A20701, Table 8, read-out: MIC): 50 µg/mL (≈ 132 µM)
- MIC ([10]; S. aureus BX-1633 A9606, Table 8, read-out: MIC): 6.3 µg/mL (≈ 16.6 µM)
- MIC ([10]; S. aureus Smith A9537, Table 8, read-out: MIC): 0.2 µg/mL (≈ 0.529 µM)
- MIC [11]: 6.3 µg/mL (≈ 16.6 µM)
- MIC [12]: 3.1 µg/mL (≈ 8.19 µM)
- MIC [13]: 0.8 µg/mL (≈ 2.11 µM)
